Assay results published in patent publication US20230322761A1, “DEGRADATION OF BRUTON'S TYROSINE KINASE (BTK) BY CONJUGATION OF BTK INHIBITORS WITH E3 LIGASE LIGAND AND METHODS OF USE” (BEIGENE, LTD., priority 2020, published 2023).

Target: T1, BTK (Homo sapiens, UniProt Q06187)
T1 construct: endogenous in cells; host or cells: TMD-8 cells
Assay: BTK degradation in TMD-8 cells, HTRF assay after 6 h treatment
Type: cell-based
Settings: for DC50: IC50 (DC50) of BTK degradation; for Dmax: TMD8, maximum percentage of inhibition (degradation)
Experimental: TMD-8 cells are treated with compounds diluted in 0.2% DMSO, dilution is done according to the following protocol: (1) make 500× stock solution in DMSO from 1 mM by 6-fold dilution, total 8 doses were included; (2) make 2× solution in cell culture medium by transferring 0.5 μl 500× stock solution into 125 μl medium; (3) 15 μl of 2× solution is added to cells and incubate for 6 h.
After 6 h treatment, add 10 μl 4×lysis buffer to each well; seal the plate and incubate 30 min at room temperature on a plate shaker; Once the cells are lysed, 16 μL of cell lysate are transferred to a PE 384-well HTRF detection plate; 4 μL of pre-mixed HTRF antibodies are added to each well; Cover the plate with a plate sealer, spin 1000 rpm for 1 min, Incubate overnight at room temperature; Read on BMG PheraStar with HTRF protocol (337 nm-665 nm-620 nm).
The IC50 (DC50) value of a compound can be obtained by fitting the following equation
Y=Bottom+(TOP−Bottom)/(1+((IC50/X)^hillslope))
Wherein, X and Y are known values, and IC50, Hillslope, Top and Bottom are the parameters obtained by fitting with software. Y is the inhibition percentage (calculated from the equation), X is the concentration of the compound; IC50 is the concentration of the compound when the 50% inhibition is reached. The smaller the IC50 value is, the stronger the inhibitory ability of the compound is. Vice versa, the higher the IC50 value is, the weaker the ability the inhibitory ability of the compound is; Hillslope represents the slope of the fitted curve, generally around 1*; Bottom represents the minimum value of the curve obtained by data fitting, which is generally 0%±20%; Top represents the maximum value of the curve obtained by data fitting, which is generally 100%±20%. The experimental data were fitted by calculating and analyzing with Dotmatics data analysis software.

T1 sequence (Q06187 whole entry): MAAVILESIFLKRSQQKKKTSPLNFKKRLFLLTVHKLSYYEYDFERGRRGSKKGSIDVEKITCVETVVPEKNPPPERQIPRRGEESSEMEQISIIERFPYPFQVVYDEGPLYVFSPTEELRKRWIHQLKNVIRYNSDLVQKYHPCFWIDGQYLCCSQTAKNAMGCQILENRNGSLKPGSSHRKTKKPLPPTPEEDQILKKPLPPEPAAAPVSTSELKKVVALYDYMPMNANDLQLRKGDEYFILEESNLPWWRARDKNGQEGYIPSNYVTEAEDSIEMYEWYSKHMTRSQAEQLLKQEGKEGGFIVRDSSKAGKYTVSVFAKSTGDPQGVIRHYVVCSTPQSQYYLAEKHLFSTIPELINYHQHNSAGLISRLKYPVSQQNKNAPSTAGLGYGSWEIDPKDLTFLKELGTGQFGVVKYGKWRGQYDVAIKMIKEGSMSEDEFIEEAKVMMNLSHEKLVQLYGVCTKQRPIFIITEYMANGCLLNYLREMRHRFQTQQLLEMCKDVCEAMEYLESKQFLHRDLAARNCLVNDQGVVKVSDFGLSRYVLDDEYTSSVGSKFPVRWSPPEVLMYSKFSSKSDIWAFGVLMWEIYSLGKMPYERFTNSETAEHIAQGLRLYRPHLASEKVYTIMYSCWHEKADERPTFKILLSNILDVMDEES

SMILES | DC50 [nM] | Dmax [%]
CC(C)(C)c1noc(C(=O)NCc2ccc(-c3n[nH]c4ncc(-c5ccc(C6CCN(CC7CCN(c8ccc(N9CCC(=O)NC9=O)cc8)CC7)CC6)cc5)cc34)cc2F)n1 [Example 10, 3-(tert-butyl)-N-(4-(5-(4-(1-((1-(4-(2,4-dioxotetrahydropyrimidin-1(2H)-yl)phenyl)piperidin-4-yl)methyl)piperidin-4-yl)phenyl)-1H-pyrazolo[3,4-b]pyridin-3-yl)-2-fluorobenzyl)-1,2,4-oxadiazole-5-carboxamide] | 10.8 | 97.1
CC(C)(C)c1noc(C(=O)NCc2ccc(-c3n[nH]c4ncc(-c5ccc(N6CCN(CC7CCN(c8ccc(N9CCC(=O)NC9=O)cc8)CC7)CC6)cc5)cc34)cc2F)n1 [Example 11, 3-(tert-butyl)-N-(4-(5-(4-(4-((1-(4-(2,4-dioxotetrahydropyrimidin-1(2H)-yl)phenyl)piperidin-4-yl)methyl)piperazin-1-yl)phenyl)-1H-pyrazolo[3,4-b]pyridin-3-yl)-2-fluorobenzyl)-1,2,4-oxadiazole-5-carboxamide] | 5.98 | 94.1
CC(C)(C)c1noc(C(=O)NCc2ccc(-c3n[nH]c4ncc(-c5ccc(C6CCN(CCC7CCN(c8ccc(N9CCC(=O)NC9=O)cc8)CC7)CC6)cc5)cc34)cc2F)n1 [Example 12, 3-(tert-butyl)-N-(4-(5-(4-(1-(2-(1-(4-(2,4-dioxotetrahydropyrimidin-1(2H)-yl)phenyl)piperidin-4-yl)ethyl)piperidin-4-yl)phenyl)-1H-pyrazolo[3,4-b]pyridin-3-yl)-2-fluorobenzyl)-1,2,4-oxadiazole-5-carboxamide] | 5.17 | 95.7
CC(C)(C)c1noc(C(=O)NCc2ccc(-c3n[nH]c4ncc(-c5ccc(C6CCN(CCc7ccc(N8CCC(=O)NC8=O)cc7)CC6)cc5)cc34)cc2F)n1 [Example 13, 3-(tert-butyl)-N-(4-(5-(4-(1-(4-(2,4-dioxotetrahydropyrimidin-1(2H)-yl)phenethyl)piperidin-4-yl)phenyl)-1H-pyrazolo[3,4-b]pyridin-3-yl)-2-fluorobenzyl)-1,2,4-oxadiazole-5-carboxamide] | 25.7 | 93
CC(C)(C)c1noc(C(=O)NCc2ccc(-c3n[nH]c4ncc(-c5ccc(C6CCN(CCc7ccc(C8CCC(=O)NC8=O)cc7)CC6)cc5)cc34)cc2F)n1 (centres unmarked) [Example 14, 3-(tert-butyl)-N-(4-(5-(4-(1-(4-(2,6-dioxopiperidin-3-yl)phenethyl)piperidin-4-yl)phenyl)-1H-pyrazolo[3,4-b]pyridin-3-yl)-2-fluorobenzyl)-1,2,4-oxadiazole-5-carboxamide] | 4.74 | 95.2
CC(C)(C)c1nc(C(=O)NCc2ccc(-c3n[nH]c4ncc(-c5ccc(C6CCN(CC7CCN(c8ccc(N9CCC(=O)NC9=O)cc8)CC7)CC6)cc5)cc34)cc2F)no1 [Example 15, 5-(tert-butyl)-N-(4-(5-(4-(1-((1-(4-(2,4-dioxotetrahydropyrimidin-1(2H)-yl)phenyl)piperidin-4-yl)methyl)piperidin-4-yl)phenyl)-1H-pyrazolo[3,4-b]pyridin-3-yl)-2-fluorobenzyl)-1,2,4-oxadiazole-3-carboxamide] | 6.38 | 94.9
CC(C)(C)c1noc(C(=O)NCc2ccc(-c3n[nH]c4ncc(-c5ccc(C6CCN(CCC7CCN(c8ccc(N9CCC(=O)NC9=O)c(F)c8)CC7)CC6)cc5)cc34)cc2F)n1 [Example 16, 3-(tert-butyl)-N-(4-(5-(4-(1-(2-(1-(4-(2,4-dioxotetrahydropyrimidin-1(2H)-yl)-3-fluorophenyl)piperidin-4-yl)ethyl)piperidin-4-yl)phenyl)-1H-pyrazolo[3,4-b]pyridin-3-yl)-2-fluorobenzyl)-1,2,4-oxadiazole-5-carboxamide] | 9.04 | 96.4
CC(C)(C)c1noc(C(=O)NCc2ccc(-c3n[nH]c4ncc(-c5ccc(N6CCN(CCC7CCN(c8ccc(N9CCC(=O)NC9=O)c(F)c8)CC7)CC6)cc5)cc34)cc2F)n1 [Example 17, 3-(tert-butyl)-N-(4-(5-(4-(4-(2-(1-(4-(2,4-dioxotetrahydropyrimidin-1(2H)-yl)-3-fluorophenyl)piperidin-4-yl)ethyl)piperazin-1-yl)phenyl)-1H-pyrazolo[3,4-b]pyridin-3-yl)-2-fluorobenzyl)-1,2,4-oxadiazole-5-carboxamide] | 5.9 | 96.4
COc1ccc(C(=O)N2CCC(c3ccc(-c4cnc5[nH]nc(-c6ccc(CNC(=O)c7nc(C(C)(C)C)no7)c(F)c6)c5c4)cc3)CC2)cc1N1CCC(=O)NC1=O [Example 18, 3-(tert-butyl)-N-(4-(5-(4-(1-(3-(2,4-dioxotetrahydropyrimidin-1(2H)-yl)-4-methoxybenzoyl)piperidin-4-yl)phenyl)-1H-pyrazolo[3,4-b]pyridin-3-yl)-2-fluorobenzyl)-1,2,4-oxadiazole-5-carboxamide] | > 2000 | 3.39
Cc1c(-c2n[nH]c3ncc(-c4ccc(C5CCN(CCc6ccc(C7CCC(=O)NC7=O)cc6)CC5)cc4)cc23)ccc(CNC(=O)c2nc(C(C)(C)C)no2)c1F (centres unmarked) [Example 19, 3-(tert-butyl)-N-(4-(5-(4-(1-(4-(2,6-dioxopiperidin-3-yl)phenethyl)piperidin-4-yl)phenyl)-1H-pyrazolo[3,4-b]pyridin-3-yl)-2-fluoro-3-methylbenzyl)-1,2,4-oxadiazole-5-carboxamide] | 16.9 | 92.8
Cc1cc(-c2n[nH]c3ncc(-c4ccc(N5CCN(CC6CCN(c7ccc(N8CCC(=O)NC8=O)cc7)CC6)CC5)cc4)cc23)ccc1CNC(=O)c1nc(C(C)(C)C)no1 [Example 20, 3-(tert-butyl)-N-(4-(5-(4-(4-((1-(4-(2,4-dioxotetrahydropyrimidin-1(2H)-yl)phenyl)piperidin-4-yl)methyl)piperazin-1-yl)phenyl)-1H-pyrazolo[3,4-b]pyridin-3-yl)-2-methylbenzyl)-1,2,4-oxadiazole-5-carboxamide] | 3.95 | 96.4
Cc1cc(-c2n[nH]c3ncc(-c4ccc(N5CCN(CC6CCN(c7ccc(N8CCC(=O)NC8=O)cc7)CC6)CC5)cc4)cc23)ccc1[C@@H](C)NC(=O)c1nc(C(C)(C)C)no1 [Example 21, (R)-3-(tert-butyl)-N-(1-(4-(5-(4-(4-((1-(4-(2,4-dioxotetrahydropyrimidin-1(2H)-yl)phenyl)piperidin-4-yl)methyl)piperazin-1-yl)phenyl)-1H-pyrazolo[3,4-b]pyridin-3-yl)-2-methylphenyl)ethyl)-1,2,4-oxadiazole-5-carboxamide] | 8.62 | 97.5
Cc1cc(-c2n[nH]c3ncc(-c4ccc(N5CCN(CC6CCN(c7ccc(N8CCC(=O)NC8=O)cc7)CC6)CC5)cc4)cc23)ccc1CNC(=O)c1noc(C(C)(C)C)n1 [Example 22, 5-(tert-butyl)-N-(4-(5-(4-(4-((1-(4-(2,4-dioxotetrahydropyrimidin-1(2H)-yl)phenyl)piperidin-4-yl)methyl)piperazin-1-yl)phenyl)-1H-pyrazolo[3,4-b]pyridin-3-yl)-2-methylbenzyl)-1,2,4-oxadiazole-3-carboxamide] | 9.1 | 97.6
Cc1cc(-c2n[nH]c3ncc(-c4ccc(C5CCN(CCC6CCN(c7ccc(N8CCC(=O)NC8=O)c(Cl)c7)CC6)CC5)cc4)cc23)ccc1CNC(=O)c1nc(C(C)(C)C)no1 [Example 23, 3-(tert-butyl)-N-(4-(5-(4-(1-(2-(1-(3-chloro-4-(2,4-dioxotetrahydropyrimidin-1(2H)-yl)phenyl)piperidin-4-yl)ethyl)piperidin-4-yl)phenyl)-1H-pyrazolo[3,4-b]pyridin-3-yl)-2-methylbenzyl)-1,2,4-oxadiazole-5-carboxamide] | 4.04 | 96
Cc1cc(-c2n[nH]c3ncc(-c4ccc(C5CCN(CCCOc6ccc(NC7CCC(=O)NC7=O)c(C)c6)CC5)cc4)cc23)ccc1CNC(=O)c1nc(C(C)(C)C)no1 (centres unmarked) [Example 24, 3-(tert-butyl)-N-(4-(5-(4-(1-(3-(4-((2,6-dioxopiperidin-3-yl)amino)-3-methylphenoxy)propyl)piperidin-4-yl)phenyl)-1H-pyrazolo[3,4-b]pyridin-3-yl)-2-methylbenzyl)-1,2,4-oxadiazole-5-carboxamide] | 4.62 | 97.3
Cc1cc(-c2n[nH]c3ncc(-c4ccc(C5CCN(CCc6ccc(C7CCC(=O)NC7=O)c7ccccc67)CC5)cc4)cc23)ccc1CNC(=O)c1nc(C(C)(C)C)no1 (centres unmarked) [Example 25, 3-(tert-butyl)-N-(4-(5-(4-(1-(2-(4-(2,6-dioxopiperidin-3-yl)naphthalen-1-yl)ethyl)piperidin-4-yl)phenyl)-1H-pyrazolo[3,4-b]pyridin-3-yl)-2-methylbenzyl)-1,2,4-oxadiazole-5-carboxamide] | 8.16 | 96.7
